From publication PMC11195995, “A homogeneous time-resolved fluorescence screen to identify SIRT2 deacetylase and defatty-acylase inhibitors” (PLOS ONE, 2024)
“Also recorded” adds a separate entry of the source. Read-outs that look alike come from different tables or passages of the source.

What was measured:
SIRT2 [1] = biological target: T1, SIRT2 (Homo sapiens, UniProt Q8IXJ6); conditions: read-out: Kd for SIRT2 alone; cited from earlier work
T1 sequence (Q8IXJ6 34-356): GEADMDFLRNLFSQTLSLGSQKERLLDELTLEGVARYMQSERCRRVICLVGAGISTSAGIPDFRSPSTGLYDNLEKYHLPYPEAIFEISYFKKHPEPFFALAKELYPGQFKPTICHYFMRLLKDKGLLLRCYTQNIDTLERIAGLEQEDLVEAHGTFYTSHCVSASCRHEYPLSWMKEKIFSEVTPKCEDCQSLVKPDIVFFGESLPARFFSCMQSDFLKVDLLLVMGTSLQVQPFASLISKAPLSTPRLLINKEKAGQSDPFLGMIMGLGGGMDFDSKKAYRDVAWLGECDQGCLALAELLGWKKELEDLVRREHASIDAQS

SIRT2 [2] = biological target: T1, SIRT2; conditions: read-out: Deacetylase IC50; previously published; cited from earlier work
SIRT2 [3] = biological target: T1, SIRT2; conditions: read-out: IC50 for SIRT2 demyristoylase activity; cited from earlier work
[4] = biological target: SIRT2—decanoyl peptide complex; design: method as in PMID 32941003; conditions: cited from earlier work
SIRT1 = biological target: T2, SIRT1 (Homo sapiens, UniProt Q96EB6); assay: SIRT1 deacetylase activity assay; assay type: biochemical; conditions: 1 μM acetyl-H4K16
T2 sequence (Q96EB6 1-747): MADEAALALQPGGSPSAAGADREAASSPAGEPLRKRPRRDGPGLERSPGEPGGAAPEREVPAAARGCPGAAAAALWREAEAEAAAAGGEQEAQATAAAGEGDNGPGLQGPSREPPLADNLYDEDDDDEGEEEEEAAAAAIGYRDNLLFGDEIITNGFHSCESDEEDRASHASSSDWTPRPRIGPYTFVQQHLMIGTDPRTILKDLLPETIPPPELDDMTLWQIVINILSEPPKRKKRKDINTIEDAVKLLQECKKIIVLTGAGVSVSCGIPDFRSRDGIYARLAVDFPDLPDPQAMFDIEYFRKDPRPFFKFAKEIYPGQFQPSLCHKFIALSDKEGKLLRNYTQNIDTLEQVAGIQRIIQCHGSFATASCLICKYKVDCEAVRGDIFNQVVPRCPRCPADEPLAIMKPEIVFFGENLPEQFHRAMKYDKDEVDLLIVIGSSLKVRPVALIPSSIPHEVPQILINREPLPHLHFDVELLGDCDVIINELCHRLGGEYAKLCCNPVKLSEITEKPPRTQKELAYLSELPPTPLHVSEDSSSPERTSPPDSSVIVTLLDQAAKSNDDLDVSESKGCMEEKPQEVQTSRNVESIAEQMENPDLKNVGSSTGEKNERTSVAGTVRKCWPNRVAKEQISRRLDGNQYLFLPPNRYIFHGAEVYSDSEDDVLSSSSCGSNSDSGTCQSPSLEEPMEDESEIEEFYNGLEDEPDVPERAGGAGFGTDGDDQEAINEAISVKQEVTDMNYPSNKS
Experimental: (§1) The enzymatic activity of SIRT2 was measured using a MALDI-MS—based protocol reported previously. Reactions were performed at 37°C for 2.5 min in PBS containing 1 mM DTT and 1 mM of NAD^+. Acylated H4K16 peptides were used as the substrates at the following concentrations: acetyl-H4K16, 4 μM; decanoyl-H4K16, 0.2 μM; dodecanoyl-H4K16, 0.5 μM; myristoyl-H4K16, 0.5 μM. These concentrations correspond to the enzyme’s Km for each substrate under saturating NAD^+ conditions. The enzyme concentration in each reaction was chosen such that 20% or less of the substrate was processed by the enzyme when the reactions were quenched. In dose-response assays showing a reduction in SIRT2 activity by increasing amounts of ligand, the data was fit with standard sigmoidal dose-response curves as we previously described. We report absolute IC50 values from the curves which reflect ligand concentrations that reduce the activity of the enzyme by 50% compared to control (no ligand) samples. Assays measuring the effects of ligand on SIRT1 deacetylase and SIRT6 demyristoylase activities were performed similarly, as previously described.

SIRT2 [5] = biological target: T1, SIRT2; assay: SIRT2 de-decanoylase activity assay (MALDI-MS, decanoyl-H4K16 peptide); assay type: biochemical; conditions: 0.2 μM decanoyl-H4K16, 1 mM NAD+
Experimental: as §1

A549 cells = assay: Cell viability MTT assay; assay type: cell-based, human; conditions: 72 hours treatment, concentrations shown in Fig 4F and 4G
Experimental: 5,000 A549 cells were seeded in a 96-well plate in full DMEM. The total volume in each well was 150 μl, and the DMSO concentration was 0.7%. After this treatment period, 10 μl of MTT reagent was added to each well, then the cells were cultured for 4 hour before adding 100 μl of crystal dissolving solution for another 16 hour incubation (Cayman Chemical, catalog #10009365). The absorbance in each well was measured at 570 nm and was used to determine the cell viability by comparing the absorbance of drug treated cells to control (DMSO treated) cells.

[6] = biological target: T3, human SIRT2 catalytic domain (6xHis-SUMO-SIRT2) (Homo sapiens, UniProt Q8IXJ6); assay: biochemical
T3 sequence (Q8IXJ6 34-356): T1 sequence (Q8IXJ6 34-356)

SIRT2 [7] = biological target: T1, SIRT2; assay: SIRT2 binding competition assay using Cy3-myristoyl-H4K16 peptide
Experimental: Competition assays where Cy3-myristoyl-H4K16 peptide was displaced from SIRT2 by 1 were performed as previously described. Assays were performed in PBS with 1 mM DTT at 23°C in a quartz microcuvette (160 μl assay volume). Briefly, the fluorescence intensity of 50 nM Cy3-myristoyl-H4K16 peptide was measured in the presence of 2.5 μM SIRT2 and increasing amounts of 1 using excitation/emission wavelengths of 535 nm/560 nm. The final DMSO concentration in each measurement was 0.6%. As previously described, displacement of Cy3-myristoyl-H4K16 peptide from SIRT2 by a competitive ligand results in a reduction of its fluorescence.
(§2) The data from both competition assays show a reduction in probe fluorescence at increasing concentrations of competitor ligands. […] We determined and report absolute IC50 values from the curves which reflect ligand concentrations that reduce the fluorescence by 50% compared to control (no ligand) samples.

SIRT2 [8] = biological target: T1, SIRT2; assay: SIRT2 de-dodecanoylase activity assay (MALDI-MS, dodecanoyl-H4K16 peptide); assay type: biochemical; conditions: 0.5 μM dodecanoyl-H4K16, 1 mM NAD+
Experimental: as §1

SIRT6 = SIRT6 (Homo sapiens, UniProt Q8N6T7); assay: SIRT6 demyristoylase activity assay; assay type: biochemical; conditions: 16 μM myristoyl-H4K16, dose-response
Chain of SIRT6 (Q8N6T7 whole entry): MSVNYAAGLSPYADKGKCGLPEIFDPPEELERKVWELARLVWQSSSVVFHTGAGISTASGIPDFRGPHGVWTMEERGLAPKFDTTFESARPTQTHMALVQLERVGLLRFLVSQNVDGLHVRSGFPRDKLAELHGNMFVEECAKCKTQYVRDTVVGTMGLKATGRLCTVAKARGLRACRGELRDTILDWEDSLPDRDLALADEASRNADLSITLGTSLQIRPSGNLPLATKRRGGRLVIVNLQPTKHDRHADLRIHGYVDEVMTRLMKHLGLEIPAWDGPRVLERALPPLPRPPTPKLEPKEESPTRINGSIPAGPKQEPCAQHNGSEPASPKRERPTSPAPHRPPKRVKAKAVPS
Experimental: as §1

SIRT2 [9] = biological target: T1, SIRT2; assay: SIRT2 demyristoylase activity assay (MALDI-MS, myristoyl-H4K16 peptide); assay type: biochemical
Experimental: as §1

SIRT2 [10] = biological target: T1, SIRT2; assay: SIRT2 deacetylase activity assay (MALDI-MS, acetyl-H4K16 peptide); assay type: biochemical
Experimental: as §1

[11] = test system: acetylated alpha-tubulin in A549 cells; assay: Immunofluorescence staining of acetylated alpha-tubulin in A549 cells; assay type: cell-based, human; conditions: 100 μM, 6 hours
Experimental: 100,000 A549 or A549 SIRT2-KO cells were seeded on a coverslip that was placed in the well of 6-well plate, and the cells were grown overnight in full DMEM. […] The cells were then washed three times with PBS, fixed with 4% paraformaldehyde for 10 min, then washed again three times with PBS. Cells were incubated with 0.2% Triton X-100 for 15 minutes on a shaker followed by three more PBS washes. The cells were then blocked with 2% BSA in PBS for 1 hour at room temperature. […] Slides were imaged using a Keyence BZ-X710 fluorescence microscope with the following filter settings: DAPI, excitation/emission was 300–400 nm/438-484 nm; Alexa Fluor 488, excitation/emission was 448 nm/500-550 nm. All images were obtained under identical conditions, and fluorescence intensities were quantified using Fiji/ImageJ without any manipulation to the images. The fluorescence intensity from at least six cells per coverslip were randomly selected and measured targeting the cytosol (for measuring acetylated alpha-tubulin levels via Alexa Fluor 488) or the nucleus (for measuring nuclear DNA staining via DAPI). Relative fluorescence intensity was calculated as the ratio of Alexa Fluor 488/DAPI intensities. […]

[12] = test system: acetylated alpha-tubulin in A549 SIRT2-KO cells; assay: Immunofluorescence staining of acetylated alpha-tubulin in A549 SIRT2-KO cells; assay type: cell-based, human; conditions: 100 μM, 6 hours
[13] = biological target: SIRT2—decanoyl-peptide complex (Homo sapiens, UniProt Q8IXJ6); assay: 1-aminoanthracene binding competition assay, SIRT2—decanoyl-peptide complex
Experimental: (§3) Competition assays where 1-aminoanthracene was displaced from SIRT2 by 2, 4, 5, and 6 were performed as previously reported where we described its displacement from SIRT2 by 3. The assays were also cuvette-based and performed at 23°C in PBS with 1 mM DTT, and the final DMSO concentration was 0.6%. Briefly, the fluorescence intensity of 100 nM 1-aminoanthracene was measured in the presence of 4 μM SIRT2 and increasing amounts of ligand using excitation/emission wavelengths of 390 nm/520 nm. As previously described, displacement of 1-aminoanthracene from SIRT2 by a competitor results in a reduction of its fluorescence.
as §2

SIRT2 [14] = biological target: T1, SIRT2; assay: 1-aminoanthracene binding competition assay, SIRT2 alone
Experimental: as §3
We determined and report absolute IC50 values from the curves which reflect ligand concentrations that reduce the fluorescence by 50% compared to control (no ligand) samples.

SIRT2 [15] = biological target: T1, SIRT2; assay: Intact protein MALDI-MS for covalent adduct on SIRT2; conditions: 100 μM ligand, 10 μM SIRT2, 37°C, 30 minutes
Experimental: (A) MALDI-MS spectra of 10 μM SIRT2 after incubation in PBS with 1% DMSO at 37°C for 30 minutes. (B) MALDI-MS spectra of 10 μM SIRT2 after incubation with 100 μM of 2 in PBS with 1% DMSO at 37°C for 30 minutes. The predicted monoisotopic mass for this SIRT2 protein was 36552 Da, and the predicted average mass was 36576 Da; thus, the main peaks represented +1 ions in the isotopic cluster. […] The intact protein spectra were acquired with a Bruker microflex instrument in linear, positive ion mode using sinapinic acid as the matrix. Sinapinic acid was dissolved in 50% acetonitrile/50% water with 0.1% trifluoroacetic acid, which was also used to dilute protein prior to spotting on the MALDI plate. (TIFF)

For `CC(C)c1cccc(C(C)C)c1O` [compound 3, 2-6-diisopropylphenol], the Kd (SIRT2 [1]) is listed as 25 µM, the IC50 (SIRT2 [2]) is listed as 140 µM and the IC50 (SIRT2 [3]) is listed as 195 µM. The Kd [4] was 7 µM.

In the case of `O=c1/c(=C\c2cc(Br)cc(I)c2O)sc2nc3ccccc3n12` [compound 1], the IC50 (SIRT1) is reported as 32 µM, the IC50 (SIRT2 [5]) is reported as 8 µM and the “viability / toxicity in A549 cells (MTT)” value (A549 cells) is reported as “did not cause toxicity; also recorded: no effect”. For the same molecule, the IC50 [6] was 6.92 µM, the IC50 (SIRT2 [7]; 50 nM Cy3 peptide, 2.5 μM SIRT2, 23°C, read-out: IC50 for displacement of Cy3-myristoyl-H4K16 peptide from SIRT2) was 16 µM and the Kd (SIRT2 [7]; calculated from IC50 of Cy3-myristoyl-H4K16 peptide competition assay) was 5 µM. The IC50 (SIRT2 [8]) was 39 µM, the “effect on the demyristoylase activity of SIRT6” value (SIRT6) was “no effect” and the IC50 (SIRT2 [9]) was 37 µM. The “effect on the demyristoylase activity of SIRT2” value (SIRT2 [9]; 50 μM compound) was “considerably most effective”, the IC50 (SIRT2 [10]) was 7 µM and the “level of acetylated alpha-tubulin (immunofluorescence)” value [11] was “significantly increased; also recorded: enhanced fluorescence”. For the same molecule, the “level of acetylated alpha-tubulin (immunofluorescence)” value [12] was “no effect”.

For `Oc1ccc(Br)cc1I` [compound 2, 4-bromo-2-iodophenol], the Kd [13] was 3 µM, the IC50 ([13]; SIRT2-decanoyl peptide complex, 100 nM 1-aminoanthracene, 4 μM SIRT2, 10 μM decanoyl-H4K16 peptide) was 7 µM and the “affinity for SIRT2—decanoyl-peptide complex compared to SIRT2 alone” value ([13]; stronger for the complex) was 23 fold. The IC50 (SIRT2 [14]; SIRT2 only, 100 nM 1-aminoanthracene, 4 μM SIRT2) was 75 µM, the Kd (SIRT2 [14]; read-out: SIRT2 Kd) was 68 µM and the “covalent reaction with SIRT2 (intact protein mass spectrometry)” value (SIRT2 [15]) was “does not irreversibly attach to SIRT2 or form any type of covalent adduct; also recorded: does not covalently react with SIRT2”. The “Demyristoylase IC50” value (SIRT2 [9]; 0.5 μM myristoyl-H4K16, 1 mM NAD+, 37°C, absolute IC50, "no effect" = 200 μM compound did not significantly affect SIRT2 activity) was “no effect” and the IC50 (SIRT2 [10]) was 9 µM.
